Like-named read-outs stand apart in the source and are kept apart here.
What was measured:
Assay type in all cases: in vivo
[1] = tested on: Mycosphaerella graminicola; Anamorph: Septoria tritici; test: Leaf blotch of wheat (SEPTTR) disease control on wheat seedlings; conditions: Zymoseptoria tritici, wheat; for pest or weed control at 100 ppm: 100 ppm (high volume); for pest or weed control at 121.5 g/ha: 121.5 g/H (low volume track spray)
Description: Evaluation of Fungicidal Activity: Leaf Blotch of Wheat (Mycosphaerella graminicola; Anamorph: Septoria tritici; Bayer Code […]) Technical grades of materials were dissolved in acetone, which were then mixed with nine volumes of water containing 110 ppm Triton X-100. The fungicide solutions were applied onto wheat seedlings using an automated booth sprayer to run-off. All sprayed plants were allowed to air dry prior to further handling. All fungicides were evaluated using the aforementioned method for their activity vs. all target diseases. Wheat leaf blotch and brown rust activity were also evaluated using track spray applications, in which case the fungicides were formulated as EC formulations, containing 0.1% Trycol 5941 in the spray solutions. Wheat plants (variety Yuma) were grown from seed in a greenhouse in 50% mineral soil/50% soil-less Metro mix until the first leaf was fully emerged, with 7-10 seedlings per pot. These plants were inoculated with an aqueous spore suspension of Septoria tritici either prior to or after fungicide treatments. After inoculation the plants were kept in 100% relative humidity (one day in a dark dew chamber followed by two to three days in a lighted dew chamber at 20° C.) to permit spores to germinate and infect the leaf. The plants were then transferred to a greenhouse set at 20° C. for disease to develop. When disease symptoms were fully expressed on the l^st leaves of untreated plants, infection levels were assessed on a scale of 0 to 100 percent disease severity. Percent disease control was calculated using the ratio of disease severity on treated plants relative to untreated plants.

Leptosphaeria nodorum = test: Wheat glume blotch (LEPTNO) disease control; conditions: Parastagonospora nodorum, 24 h, 1 Day Protectant, read-out: LEPTNO disease control rating
Description: Technical grades of materials were dissolved in acetone, which were then mixed with nine volumes of water containing 110 ppm Triton X-100. The fungicide solutions were applied onto wheat seedlings using an automated booth sprayer to run-off. All sprayed plants were allowed to air dry prior to further handling. All fungicides were evaluated using the aforementioned method for their activity vs. all target diseases. Wheat leaf blotch and brown rust activity were also evaluated using track spray applications, in which case the fungicides were formulated as EC formulations, containing 0.1% Trycol 5941 in the spray solutions. Wheat plants (variety Yuma) were grown from seed in a greenhouse in 50% mineral soil/50% soil-less Metro mix until the first leaf was fully emerged, with 7-10 seedlings per pot. These plants were inoculated with an aqueous spore suspension of Septoria tritici either prior to or after fungicide treatments. After inoculation the plants were kept in 100% relative humidity (one day in a dark dew chamber followed by two to three days in a lighted dew chamber at 20° C.) to permit spores to germinate and infect the leaf. The plants were then transferred to a greenhouse set at 20° C. for disease to develop. When disease symptoms were fully expressed on the l^st leaves of untreated plants, infection levels were assessed on a scale of 0 to 100 percent disease severity. Percent disease control was calculated using the ratio of disease severity on treated plants relative to untreated plants. Evaluation of Fungicidal Activity: Wheat Glume Blotch (Leptosphaeria nodorum; Bayer Code […]) Wheat plants (variety Yuma) were grown from seed in a greenhouse in 50% mineral soil/50% soil-less Metro mix until the first leaf was fully emerged, with 7-10 seedlings per pot. These plants were inoculated with an aqueous spore suspension of Leptosphaeria nodorum 24 hr after fungicide treatments. After inoculation the plants were kept in 100% relative humidity (one day in a dark dew chamber followed by two days in a lighted dew chamber at 20° C.) to permit spores to germinate and infect the leaf. The plants were then transferred to a greenhouse set at 20° C. for disease to develop. Fungicide formulation, application and disease assessment followed the procedures as described in the Example A.

[2] = tested on: Blumeria graminis Fsp. Hordei; test: Barley powdery mildew (ERYSGH) disease control; conditions: 24 h, 1 Day Protectant, read-out: ERYSGH disease control rating
Description: Technical grades of materials were dissolved in acetone, which were then mixed with nine volumes of water containing 110 ppm Triton X-100. The fungicide solutions were applied onto wheat seedlings using an automated booth sprayer to run-off. All sprayed plants were allowed to air dry prior to further handling. All fungicides were evaluated using the aforementioned method for their activity vs. all target diseases. Wheat leaf blotch and brown rust activity were also evaluated using track spray applications, in which case the fungicides were formulated as EC formulations, containing 0.1% Trycol 5941 in the spray solutions. Wheat plants (variety Yuma) were grown from seed in a greenhouse in 50% mineral soil/50% soil-less Metro mix until the first leaf was fully emerged, with 7-10 seedlings per pot. These plants were inoculated with an aqueous spore suspension of Septoria tritici either prior to or after fungicide treatments. After inoculation the plants were kept in 100% relative humidity (one day in a dark dew chamber followed by two to three days in a lighted dew chamber at 20° C.) to permit spores to germinate and infect the leaf. The plants were then transferred to a greenhouse set at 20° C. for disease to develop. When disease symptoms were fully expressed on the l^st leaves of untreated plants, infection levels were assessed on a scale of 0 to 100 percent disease severity. Percent disease control was calculated using the ratio of disease severity on treated plants relative to untreated plants. Evaluation of Fungicidal Activity: Barley Powdery Mildew (Blumeria graminis Fsp. Hordei; Synonym: Erysiphe graminis Fsp. Hordei; Bayer Code […]) Barley seedlings (variety Harrington) were propagated in soil-less Metro mix, with each pot having 8 to 12 plants, and used in the test when first leaf was fully emerged. Test plants were inoculated by dusting with infected stock plants 24 hr after fungicide treatments. After inoculation the plants were kept in a greenhouse set at 20° C. for disease to develop. Fungicide formulation, application and disease assessment on the sprayed leaves followed the procedures as described in the Example A.

[3] = 24 h, 1 Day Protectant, read-out: SEPTTR 1DP disease control rating
[4] = 72 h, 3 Day Curative, read-out: SEPTTR 3DC disease control rating

SMILES | pest or weed control at 100 ppm [1, 3] | pest or weed control at 121.5 g/ha [1, 3] | pest or weed control at 100 ppm [1, 4] | pest or weed control at 121.5 g/ha [1, 4] | pest or weed control at 100 ppm (Leptosphaeria nodorum) | pest or weed control at 100 ppm [2]
CCCO[C@H]1CCC[C@H](NC(=O)c2nccc(OC)c2OC(C)=O)C(=O)O[C@@H](C)[C@@H]1Cc1ccccc1 [Compound 70] | > 70% | > 70% | > 70% | > 70% | > 70% | < 70%
COc1ccnc(C(=O)N[C@H]2CCC[C@H](OCC3CC3)[C@@H](Cc3ccc(F)cc3)[C@H](C)OC2=O)c1OCOC(C)=O [Compound 61] | – | > 70% | – | > 70% | > 70% | < 70%
CCCC[C@H]1[C@H](C)OC(=O)[C@@H](NC(=O)c2nccc(OC)c2OCOC(C)=O)CCC[C@@H]1OCC1CC1 [Compound 73] | – | > 70% | – | > 70% | > 70% | > 70%
COc1ccnc(C(=O)N[C@H]2CCC[C@H](Oc3ccccc3)[C@@H](CCC(C)C)[C@H](C)OC2=O)c1OC(C)=O [Compound 36] | – | > 70% | – | > 70% | > 70% | > 70%
CCCO[C@H]1CCC[C@H](NC(=O)c2nccc(OC)c2OC(C)=O)C(=O)O[C@@H](C)[C@@H]1CCC(C)C [Compound 74, 2-(((3S,7S,8S,9S)-8-isopentyl-9-methyl-2-oxo-7-propoxyoxonan-3-yl)carbamoyl)-4-methoxypyridin-3-yl acetate] | – | > 70% | – | > 70% | > 70% | < 70%
CCCC[C@H]1[C@H](C)OC(=O)[C@@H](NC(=O)c2nccc(OC)c2OCOC(C)=O)CCC[C@@H]1Oc1ccccc1 [Compound 33] | – | > 70% | – | > 70% | > 70% | > 70%
CCCO[C@H]1CCC[C@H](NC(=O)c2nccc(OC)c2OCOC(C)=O)C(=O)O[C@@H](C)[C@@H]1CCC(C)C [Compound 25, ((2-(((3S,7S,8S,9S)-8-isopentyl-9-methyl-2-oxo-7-propoxyoxonan-3-yl)carbamoyl)-4-methoxypyridin-3-yl)oxy)methyl acetate] | – | < 70% | – | > 70% | > 70% | > 70%
COc1ccnc(C(=O)N[C@H]2CCC[C@H](Oc3ccccc3)[C@@H](CCC(C)C)[C@H](C)OC2=O)c1OCOC(C)=O [Compound 40] | – | > 70% | – | > 70% | > 70% | > 70%

Reference: patent US9247741B2, “Use of macrocyclic picolinamides as fungicides” (DOW AGROSCIENCES LLC, priority 2013, dated 2016)
